# Results as given in patent US20200022963A1, “PHARMACEUTICAL COMPOSITION COMPRISING BETAHISTINE” (Otolanum AG, priority 2017, published 2020).
# Where two headings read alike, the source gives them in different places.
# Test: Pharmacokinetic profile after single oral, intranasal and intravenous betahistine in beagle dogs, Example 5
# Type: in vivo
# Conditions: dog; for concentration at 0 h / concentration at 5 min / concentration at 0.167 h / concentration at 0.333 h / concentration at 0.5 h / concentration at 1 h / concentration at 2 h / concentration at 3 h / concentration at 6 h / concentration at 24 h: Betahistine Plasma Concentration
# Experimental: In this study, the pharmacokinetic profile of betahistine was evaluated after a single dose administration of betahistine in male and female beagle dogs (age 5-7 months; weight of 5-11 kg, within a range of 3 kg for each sex) for three routes of administration: oral, intranasal, and intravenous.
# On Day 1 of the study, betahistine (BH) was delivered orally at a dose of 12 mg/kg, 24 mg/kg, or 48 mg/kg. Each treatment group comprised 8 animals (4 males and 4 females). For pharmacokinetic assessment, plasma samples were collected prior to dosing, and then at 5, 10, 20 and 30 min, 1, 2, 3, 6, 24 hours after dosing.
# On Day 8 of the study, the animals that received oral BH at a dose of 12 mg/kg were administered the test betahistine composition intranasally at a dose of 40 mg betahistine dihydrochloride; the animals that received oral BH at a dose of 24 mg/kg were administered the test betahistine composition intranasally at a dose of 80 mg betahistine dihydrochloride; and the animals that received oral BH at a dose of 48 mg/kg were administered the test betahistine composition intranasally at a dose of 120 mg betahistine dihydrochloride. The test betahistine composition was delivered intranasally in a single dose via an Aptar nasal spray pump device at a total dose level of 40, 80 and 120 mg of betahistine dihydrochloride. Plasma samples were collected prior to dosing, and then at 5, 10, 20 and 30 min, 1, 2, 3, 6, 24 hours after dosing.
# On Day 15 of the study, the animals that received oral BH at a dose of 12 mg/kg and the test betahistine composition intranasally at a dose of 40 mg betahistine dihydrochloride were administered a bolus intravenous injection of betahistine at a dose of 0.44 mg/kg. Plasma samples were collected prior to dosing, and then at 5, 10, 20 and 30 min, 1, 2, 3, 6, 24 hours after dosing.
# Betahistine 13CD3 dihydrochloride and 2-pyridylacetic acid-D4 hydrochloride were used as respective internal standards. The calibration range for betahistine was 0.05-250 ng/mL and for 2-PAA 2.00-3000 ng/mL using a plasma sample volume of 0.50 mL.
# For determination of betahistine, the method involved liquid-liquid extraction, for 2-PAA, the method involved protein precipitation. Plasma samples were prepared for betahistine by extraction under basic conditions with an organic solvent, then the organic phase was dried, reconstituted and transferred for LC/MS-MS analysis. […] Sample analysis was performed using reversed phase chromatography.
# [1] = both sexes, beagle, in vivo, iv, 0.44 mg/kg
# [2] = both sexes, beagle, in vivo, po, 12 mg/kg
# [3] = both sexes, beagle, in vivo, po, 24 mg/kg
# [4] = both sexes, beagle, in vivo, po, 48 mg/kg
# [5] = female, beagle, in vivo, inhaled or intranasal, 6 mg/kg
# [6] = female, beagle, in vivo, inhaled or intranasal, 13 mg/kg
# [7] = female, beagle, in vivo, inhaled or intranasal, 17.7 mg/kg
# [8] = female, beagle, in vivo, iv, 0.44 mg/kg
# [9] = female, beagle, in vivo, po, 12 mg/kg
# [10] = female, beagle, in vivo, po, 24 mg/kg
compound,measurement,setting,value
CNCCc1ccccn1 [betahistine],Cmax,"beagle, in vivo, oral BH 48 mg/kg, male, Day 1, read-out: Cmax",102 ± 30.2 ng/mL
same,concentration at 0 h,[1],0.0825 ng/mL
same,concentration at 5 min,[1],50.9 ng/mL
same,concentration at 0.167 h,[1],22 ng/mL
same,concentration at 0.333 h,[1],7.03 ng/mL
same,concentration at 0.5 h,[1],4.82 ng/mL
same,concentration at 1 h,[1],0.308 ng/mL
same,concentration at 2 h,[1],0.633 ng/mL
same,concentration at 3 h,[1],0.0878 ng/mL
same,concentration at 6 h,[1],0.849 ng/mL
same,concentration at 24 h,[1],0.202 ng/mL
same,concentration at 0 h,[2],0 ng/mL
same,concentration at 5 min,[2],1.97 ng/mL
same,concentration at 0.167 h,[2],4.6 ng/mL
same,concentration at 0.333 h,[2],7.96 ng/mL
same,concentration at 0.5 h,[2],13.4 ng/mL
same,concentration at 1 h,[2],9.86 ng/mL
same,concentration at 2 h,[2],0.36 ng/mL
same,concentration at 3 h,[2],0.0181 ng/mL
same,concentration at 6 h,[2],0.00797 ng/mL
same,concentration at 24 h,[2],0.0105 ng/mL
same,concentration at 0 h,[3],0 ng/mL
same,concentration at 5 min,[3],5 ng/mL
same,concentration at 0.167 h,[3],5.15 ng/mL
same,concentration at 0.333 h,[3],15.5 ng/mL
same,concentration at 0.5 h,[3],14.9 ng/mL
same,concentration at 1 h,[3],31.9 ng/mL
same,concentration at 2 h,[3],2.83 ng/mL
same,concentration at 3 h,[3],1.16 ng/mL
same,concentration at 6 h,[3],0.21 ng/mL
same,concentration at 24 h,[3],0 ng/mL
same,concentration at 0 h,[4],0 ng/mL
same,concentration at 5 min,[4],12.1 ng/mL
same,concentration at 0.167 h,[4],22.5 ng/mL
same,concentration at 0.333 h,[4],12.9 ng/mL
same,concentration at 0.5 h,[4],26.5 ng/mL
same,concentration at 1 h,[4],56.5 ng/mL
same,concentration at 2 h,[4],21.5 ng/mL
same,concentration at 3 h,[4],6.57 ng/mL
same,concentration at 6 h,[4],0.439 ng/mL
same,concentration at 24 h,[4],0 ng/mL
same,AUC(0-t),"both sexes, beagle, in vivo, IV bolus BH 0.44 mg/kg, sex-combined, Day 15, read-out: AUC(0-t)",23 ng·h/mL
same,"Absolute Bioavailability (% F), AUC(0-t)/D","oral 24 mg/kg vs IV bolus 0.44 mg/kg, sex-combined",3.01%
same,AUC(0-t)/D,[5],30.2 ± 9.31 hr*ng/mL/(mg/kg)
same,Cmax,[5],770 ng/mL
same,Cmax/D,[5],128 ± 42.1 ng/mL/(mg/kg)
same,Intranasal AUC/dose,[5],30.2 (h · ng/mL)/(mg/kg)
same,Tmax,[5],4.8 min
same,AUC(0-t),"female, beagle, in vivo, inhaled or intranasal, 6 mg/kg, AUC(0-6)",180 ± 57.3 ng·h/mL
same,AUC(0-t),"female, beagle, in vivo, inhaled or intranasal, 6 mg/kg, AUC(0-t)",181 ± 55.8 ng·h/mL
same,AUC(0-inf),[6],480 ± 336 ng·h/mL
same,AUC(0-t)/D,[6],33.8 ± 21.8 hr*ng/mL/(mg/kg)
same,Cmax,[6],1790 ng/mL
same,Cmax/D,[6],138 ± 102 ng/mL/(mg/kg)
same,Intranasal AUC/dose,[6],33.8 (h · ng/mL)/(mg/kg)
same,Tmax,[6],8.4 min
same,AUC(0-t),"female, beagle, in vivo, inhaled or intranasal, 13 mg/kg, AUC(0-6)",432 ± 281 ng·h/mL
same,AUC(0-t),"female, beagle, in vivo, inhaled or intranasal, 13 mg/kg, AUC(0-t)",440 ± 283 ng·h/mL
same,AUC(0-inf),[7],302 ng·h/mL
same,AUC(0-t)/D,[7],16.4 ± 0.479 hr*ng/mL/(mg/kg)
same,Cmax,[7],1330 ng/mL
same,Cmax/D,[7],75.1 ± 17.0 ng/mL/(mg/kg)
same,Intranasal AUC/dose,[7],16.4 (h · ng/mL)/(mg/kg)
same,Tmax,[7],4.8 min
same,AUC(0-t),"female, beagle, in vivo, inhaled or intranasal, 17.7 mg/kg, AUC(0-6)",277 ± 7.99 ng·h/mL
same,AUC(0-t),"female, beagle, in vivo, inhaled or intranasal, 17.7 mg/kg, AUC(0-t)",290 ± 8.47 ng·h/mL
same,AUC(0-inf),[8],14.3 ng·h/mL
same,AUC(0-t)/D,[8],60.3 ± 40.0 hr*ng/mL/(mg/kg)
same,Cmax,[8],43.7 ng/mL
same,Cmax/D,[8],99.3 ng/mL/(mg/kg)
same,Tmax,[8],5.4 min
same,Vd,[8],10.6 L/kg
same,clearance,[8],513 mL/min/kg
same,half-life,[8],14.3 min
same,AUC(0-t),"female, beagle, in vivo, iv, 0.44 mg/kg, AUC(0-6)",16.3 ng·h/mL
same,AUC(0-t),"female, beagle, in vivo, iv, 0.44 mg/kg, AUC(0-t)",26.5 ng·h/mL
same,concentration at 0 h,[8],0.0551 ng/mL
same,concentration at 5 min,[8],43.7 ng/mL
same,concentration at 0.167 h,[8],14.8 ng/mL
same,concentration at 0.333 h,[8],6 ng/mL
same,concentration at 0.5 h,[8],4.06 ng/mL
same,concentration at 1 h,[8],0.268 ng/mL
same,concentration at 2 h,[8],0.274 ng/mL
same,concentration at 3 h,[8],0.095 ng/mL
same,concentration at 6 h,[8],0.648 ng/mL
same,concentration at 24 h,[8],0.405 ng/mL
same,AUC(0-6)/D,[9],1.33 ± 0.483 hr*ng/mL/(mg/kg)
same,Cmax,[9],14.7 ± 4.56 ng/mL
same,Cmax/D,[9],1.22 ± 0.380 ng/mL/(mg/kg)
same,Oral AUC/dose,[9],1.33 (h · ng/mL)/(mg/kg)
same,Tmax,[9],60 min
same,AUC(0-t),"female, beagle, in vivo, po, 12 mg/kg, AUC(0-t)",15.9 ± 5.8 ng·h/mL
same,concentration at 0 h,[9],0 ng/mL
same,concentration at 5 min,[9],2.59 ng/mL
same,concentration at 0.167 h,[9],6.46 ng/mL
same,concentration at 0.333 h,[9],10.1 ng/mL
same,concentration at 0.5 h,[9],7.8 ng/mL
same,concentration at 1 h,[9],14.1 ng/mL
same,concentration at 2 h,[9],0.263 ng/mL
same,concentration at 3 h,[9],0 ng/mL
same,concentration at 6 h,[9],0 ng/mL
same,concentration at 24 h,[9],0 ng/mL
same,AUC(0-6)/D,[10],1.71 ± 0.748 hr*ng/mL/(mg/kg)
same,AUC(0-inf),[10],27.7 ng·h/mL
same,Cmax,[10],38 ± 26.1 ng/mL
same,Cmax/D,[10],1.58 ± 1.09 ng/mL/(mg/kg)
same,Oral AUC/dose,[10],1.71 (h · ng/mL)/(mg/kg)
same,Tmax,[10],60 min
same,half-life,[10],84.6 min
same,AUC(0-t),"female, beagle, in vivo, po, 24 mg/kg, AUC(0-6)",26.2 ng·h/mL
same,AUC(0-t),"female, beagle, in vivo, po, 24 mg/kg, AUC(0-t)",41 ± 17.9 ng·h/mL
same,concentration at 0 h,[10],0 ng/mL
same,concentration at 5 min,[10],5.32 ng/mL
same,concentration at 0.167 h,[10],5.24 ng/mL
same,concentration at 0.333 h,[10],7.13 ng/mL
same,concentration at 0.5 h,[10],12 ng/mL
same,concentration at 1 h,[10],36.8 ng/mL
same,concentration at 2 h,[10],3.58 ng/mL
same,concentration at 3 h,[10],1.71 ng/mL
